The results in this text go back to patent US12071450B2, “Salts of conjugates for cancer therapy” (Biosight Ltd., priority 2015, dated 2024).

Series [1] has as its system K562, Human chronic myelogenous leukemia. The series can be described thus: MTT proliferation assay, K562 cells. The format is cell-based. The settings on record: 3 replicates. In general terms: Formazan colour is commonly taken as a measure of viable cells.
In series [2] the test system is CCRF-CEM, Human acute lymphoblastic leukemia. The series can be described thus: MTT proliferation assay, CCRF-CEM cells. The class given is cell-based. As to conditions: 3 replicates.
Series [3] has as its system CCRF-SB, Human acute lymphoblastic leukemia. The series can be described thus: MTT proliferation assay, CCRF-SB cells. The format is cell-based. The settings on record: 3 replicates.
The subject of series [4] is HL-60, Human promyelocytic leukemia. The series can be described thus: MTT proliferation assay, HL-60 cells. The format is cell-based. The settings on record: 3 replicates.
For series [5], the system named is Molt-4, Human acute lymphoblastic leukemia. The series can be described thus: MTT proliferation assay, Molt-4 cells. The class given is cell-based. As to conditions: 3 replicates.
The subject of series [6] is L1210 leukemia cancer cells. The series can be described thus: MTT proliferation assay, L1210 leukemia cancer cells. The format is cell-based. The settings on record: 72 hr incubation, formulated in saline, 6 replicates. On the procedure:
The L1210 leukemia cancer cells were grown in DMEM medium with 10% Donor Horse Serum, 1% Glutamine, 1% Non-essential Amino Acids, 0.1% Amphotericin, and 0.1% Gentamicin. Cells were diluted and seeded into 96-wells plate 2000 cells/ml, 400 cells/well, in a volume of 0.2 ml per well. The plates were incubated at 37° C. for 180 min. Following incubation, test substances were added at increasing concentrations from […] formulated in saline in 6 replicates each. The tested substances were Asp(Cytarabine).Acetate salt form, Asp(Cytarabine).hydrochloride salt form, Asp(Cytarabine).Methansulfonate salt form, Asp(Cytarabine).Benzenesulfonate salt form and Asp(Cytarabine).phosphate salt form. Test plates also included 6 replicate wells of saline as control. Plates were incubated at 37° C. for 72 hr prior to analysis. At the end of the exposure period, an MTT [3-(4,5-dimethylthiazole-2-yl)-2,5-diphenyl tetrazolium bromide] assay was performed. To each test well MTT at concentration of 5 mg/ml was added in a volume of 0.02 ml. Plates were incubated at 37° C. for 3 hr, then centrifuged at 3500 rpm for 6 minutes and the supernatants were aspirated. The pellets which contained MTT crystals were dissolved in 0.2 ml DMSO each. Absorbance was determined using ELISA reader at a wavelength of 570 nm.

A short description of series [7]: Stability (decomposition) in solvents. The format is physicochemical. As to conditions: rate is determined by heat and time.
A short description of series [8]: Solubility in water and organic solvents. The format is physicochemical.

Structures can show the parent of a compound that is named as a salt.

The IC50 is the concentration that inhibits the measured activity by half. Read a high IC50 as lower potency. `NC(CC(=O)Nc1ccn([C@@H]2O[C@H](CO)C(O)C2O)c(=O)n1)C(=O)O` (some centres unmarked) [Asp(Cytarabine)•Acetate salt form, Asp(Cytarabine).Acetate]: the IC50 in series [1] stood at 355 nM; in series [2], 23 nM; in series [3] it was 19 µM; in series [4], 262 nM; in series [5], 12 nM; in series [6] it was 116 nM.
On to `Cl.NC(CC(=O)Nc1ccn([C@@H]2O[C@H](CO)C(O)C2O)c(=O)n1)C(=O)O` (some centres unmarked) [Asp(Cytarabine)•hydrochloride salt form, Asp(Cytarabine).HCl], for which, in series [7] (DMSO and DMF), the “stability in strong polar aprotic solvents” value was “decompose”. Besides, the stability in water entry in series [7] (water) is recorded as “decompose”. In addition, the “solubility in organic solvents” value in series [8] (most organic solvents: acetonitrile, ethers, ketones, halogenated solvents) is listed as “insoluble”. Further, the solubility in water entry in series [8] (water) was “soluble”. The same compound registered an IC50 in series [6] of 240 nM.
As to Asp(Cytarabine).benzenesulfonate, in series [6], it took 23 nM to reach half-maximal inhibition (IC50).
The same measure, in the same setting: with Asp(Cytarabine).methanesulfonate the figure was 2 nM; with “Asp(Cytarabine).phosphate [Asp(Cytarabine)•phosphate salt form]”, 34 nM.
